The results in this text go back to ChEMBL document CHEMBL2321745, “Synthesis and biological evaluation of substituted benzoxazoles as inhibitors of mPGES-1: use of a conformation-based hypothesis to facilitate compound design” (Bioorg Med Chem Lett, 2013).

Series [1] is described as follows: Apparent intrinsic clearance in human liver microsomes. Particulars: read-out: CLH(app). It is filed as ADME, Microsome. In general terms: Liver microsomes are a subcellular fraction often used to study metabolism.
Series [2] can be described thus: Oral bioavailability in Sprague-Dawley rat at 1 mg/kg. Particulars: in vivo. It is filed as ADME, organism-based.
Series [3] is described as follows: Volume of distribution at steady state in Sprague-Dawley rat at 1 mg/kg, iv. It is filed as ADME, organism-based. Details: dose 1 mg/kg, route intravenous. The note with it: in vivo, read-out: Vdss.
The nature of series [4]: Half life in Sprague-Dawley rat at 1 mg/kg, po. Also noted: dose 1 mg/kg, route oral. The note with it: in vivo. It is filed as ADME, organism-based.
The nature of series [5]: Mean residence time in Sprague-Dawley rat at 1 mg/kg, po. It is filed as ADME, organism-based. Details: dose 1 mg/kg, route oral. Particulars: in vivo.
A short description of series [6]: Clearance in Sprague-Dawley rat at 1 mg/kg, iv. The note with it: in vivo. It is filed as ADME, organism-based. Details: dose 1 mg/kg, route intravenous.
A short description of series [7]: AUC (infinity) in Sprague-Dawley rat at 1 mg/kg, po. It is filed as ADME, organism-based. Also noted: time infinity, dose 1 mg/kg, route oral. The note with it: plasma.
Series [8] can be described thus: Cmax in Sprague-Dawley rat at 1 mg/kg, po. Details: dose 1 mg/kg, route oral. It is filed as ADME, organism-based. Particulars: in vivo.

One may read the bioavailability as dose-corrected exposure relative to a reference, in per cent. A high value points to good availability. In general, half-life refers to the time in which the quantity being followed falls by half. Low readings indicate rapid decline, high ones slow decline. Usually MRT stands for the average time that molecules of a dose stay in the body. In general, clearance refers to the rate of elimination divided by the concentration. A high value points to a high capacity for elimination. Take `Cc1cc2oc(N3CCC(C(=O)N[C@H]4CCC[C@H](C(C)(C)O)C4)CC3)nc2cc1Cl`: the CLint scaled in series [1] is 223 mL/min/kg. For the same compound, in series [2], the bioavailability was determined as 15%. Besides, in series [3], the Vd was determined as 2 L/kg. Further, the half-life in series [4] was 0.54 h. This compound also registered an MRT in series [5] of 0.78 h. Further, the clearance in series [6] is 44 mL/min/kg.

As a reminder, the AUC(0-inf) is total exposure, with the tail of the curve extrapolated. Higher therefore signals more exposure. A word on the Cmax: it is the maximum level reached in the sampled fluid or tissue. The compound `O=C(N[C@H]1CCC[C@H](CO)C1)C1CCN(c2nc3cc(Cl)c(-c4ccc(Cl)cc4)cc3o2)CC1` gave a bioavailability in series [2] of 42%. Moreover, the Vd in series [3] worked out at 2.9 L/kg. Besides, the AUC(0-inf) in series [7] came out at 1.9 µM·h. The compound also had an MRT in series [5] of 6.8 h. The compound also returned a Cmax in series [8] of 200 nM.

Consider `CC(C)(O)[C@H]1CCC[C@H](NC(=O)C2CCN(c3nc4cc(Cl)c(C(F)(F)F)cc4o3)CC2)C1`, for which the CLint scaled in series [1] came to 98 mL/min/kg. This compound also yielded a bioavailability in series [2] of 38%. Also, the Vd in series [3] was determined as 4.6 L/kg. This compound had an AUC(0-inf) in series [7] of 0.45 µM·h. The half-life in series [4] is 5.4 h. The compound further yielded an MRT in series [5] of 3.6 h. In series [8], the peak level (Cmax) was 120 nM. Also, in series [6], the clearance was 30 mL/min/kg.

Take `CS(=O)(=O)[C@H]1CCC[C@H](NC(=O)C2CCN(c3nc4cc(Cl)c(C(F)(F)F)cc4o3)CC2)C1`: the CLint scaled in series [1] was 4.6 mL/min/kg. The bioavailability in series [2] is 30%. In series [3], the Vd stood at 2.1 L/kg. This compound returned an AUC(0-inf) in series [7] of 1.1 µM·h. Moreover, the half-life in series [4] is 17 h. The same compound registered an MRT in series [5] of 6.5 h. Further, the Cmax in series [8] came out at 150 nM. Further, the clearance in series [6] was found to be 9.4 mL/min/kg.
